Values quoted from earlier work in US20030059487A1, “Composition and method for the treatment of hypercholesterolemia and hyperlipidemia in mammals” (priority 2001, published 2003).

Settings: background statement on Lipitor

In the case of `CC(C)c1c(C(=O)Nc2ccccc2)c(-c2ccccc2)c(-c2ccc(F)cc2)n1CC[C@@H](O)C[C@@H](O)CC(=O)O` [atorvastatin], the “raises HDL cholesterol” value is listed as 5 to 10%, the “reduces LDL” value is listed as 40 to 60% and the reduces triglycerides is listed as 20 to 40%.
